# Assay results from patent publication US5888993A, “Vanadium compounds in the treatment of elevated blood sugar levels” (The University of British Columbia, priority 1997, dated 1999).
# “And” between values parts separate entries of the source, which are not always exact repeats. Equal values may be shown once.
# Tests used:
# [1] = log p (partition coefficient); assay type: physicochemical
# diabetic rats [2] = test: Blood glucose response after i.p. injection in STZ diabetic rats; assay type: in vivo, rat
# Experimental: Initial experiments were carried out to determine pharmacological effectiveness of BMOV. Using male rats, made diabetic by the injection of streptoxoticin (STZ) at a dose of 60 mg/kg i.v., BMOV was initially given by intraperitoneal (i.p.) injection as a suspension in 1% methyl cellulose.
# Two animals developed hypoglycemia.
# diabetic rats [3] = test: BMOV in drinking water, STZ diabetic rats; assay type: in vivo, rat
# diabetic rats [4] = test: BMOV single oral gavage, STZ diabetic rats; assay type: in vivo, rat; details: 160 μmol/kg
# diabetic rats [5] = test: Prolonged administration in drinking water (77 days), STZ diabetic rats; assay type: in vivo, rat
# Experimental: BMOV was administered to normal and diabetic rats in drinking water.
# The study was composed of 4 groups of animals Control (8 animals), Control-Treated (11 animals), Diabetic (11 animals) and Diabetic-Treated (12 animals). The diabetic state was induced by injecting STZ at 60 mg/kg dissolved in 0.9% NaCl I.V. via the tail vein to anaesthetized rats. The two control groups were injected with 0.9% NaCl I.V. through the tail vein. The diabetic state was determined with a "Testape"™ test at 3 days post-injection and later confirmed with a glucometer test. Blood glucose and insulin assays were carried out post-injection over the course of the study. Treatment according to the invention was started 1 week after determination of the diabetic state.
# Treated diabetic animals received between 0.3 and 0.5 mmol/kg of the compound/day in drinking water over a 77 day period. Treated control animals received a slightly lower dose (0.2-0.3 mmol/day) over the same period. The concentration of BMOV in the drinking water was varied between 1.6 and 3.2 mM. The reason for the differing doses in the two sets of animals is that the two groups drank different amounts of water daily; it was difficult to attain the same dose in both groups.
# 1. As indicated above, 4 groups of animals were studied, but the diabetic-treated group was sub-divided to diabetic-treated responders (8 animals) and diabetic-treated non-responders (4 animals). Curve 1 is the control group, curve 2 the control-treated group, curve 3 the diabetic group, curve 4 is the diabetic-treated responders and curve 5 is the diabetic-treated non-responders. […] Treatment began with a […] solution of the compound. […] On day 24, the concentration was increased to 2.37 mM (0.7 mg/ml).
# SHR rats = test: Blood pressure reduction by BMOV, spontaneously hypertensive rats; assay type: in vivo, rat; details: SHRO, 0.75 mg/ml in drinking water
# Experimental: (§1) 11 SHR and 12 WKY rats (all male) were procured at 4 weeks of age from Charles River, Canada. The animals were divided into four experimental groups: SHR (untreated n=5), SHRO (BMOV treated n=6), WKY (untreated n=8) and WKYO (BMOV treated n=4). Chronic BMOV treatment was commenced on the SHRO and WKYO groups at 5 weeks of age. The rats were given BMOV (0.75 mg/ml) ad libitum in the drinking water.
# (§2) Once at week 5 and then starting at week 8, weekly measurements of blood pressure were done on all groups for the next 3 weeks. Blood samples were also collected via the tail vein during the weeks mentioned above. These were centrifuged and plasma was collected for subsequent glucose and insulin analyses. Chronic blood pressure measurements were done on conscious rats, using the tail cuff method without external preheating. Initial experiments to validate the tail cuff method by comparing the readings obtained with it to those obtained by direct arterial cannulation were conducted.
# WKY rats = test: Blood pressure study with BMOV, Wistar Kyoto rats; assay type: in vivo, rat; details: WKYO, 0.75 mg/ml in drinking water
# Experimental: as §1, §2
# diabetic rats [6] = test: Comparative testing, plasma glucose after oral gavage in STZ diabetic rats; assay type: in vivo, male wistar rats; details: oral gavage 1 mmol/kg
# Experimental: Diabetes was induced in all animals by a single intravenous injection of streptozotocin (STZ) 60 mg/kg in 0.9% NaCl via the tail vein. Three days after STZ injection, blood was collected from the tail by nicking the tail tip and expressing the blood into heparinized capillary tubes. Blood was centrifuged at 20,000 g for 10 minutes to separate the plasma. Glucose analysis was done immediately on the plasma sample using a Boehringer Mannheim kit. […] One week after STZ injection animals were randomly divided into 3 pairs of rats. Each pair of rats received by oral gavage 1 mmol/kg of BMOV or VO(Sal)2 or VO(acac)2, suspended in 3% acacia.
# STZ-diabetic rats = test: Comparison of BMOV and ETHYLBMOV, plasma glucose and insulin in STZ-diabetic rats; assay type: in vivo, rat; details: 0.6 mmol kg^-1, one oral gavage, 24 hour period
# Experimental: Animal studies were conducted in STZ-diabetic rats comparing doses of 0.6 mmol kg^-1 for VO(ma)2 (BMOV) and VO(ema)2 (ETHYLVMOV). FIGS. 8 and 9 respectively show plasma glucose and plasma insulin values recorded over 24 hour periods after one oral gavage of a water solution of either BMOV or ETHYLBMOV, in order to compare their efficacies.
# non diabetic rats = test: Previous laboratory studies of BMOV in non diabetic rats; assay type: in vivo, rat; details: 0.75 mg/ml
# Experimental: as §1
# [7] = diabetic-treated non-responders, pretreatment, mean ± S.E.M.
# [8] = diabetic-treated non-responders, week 6, mean ± S.E.M.
# [9] = diabetic-treated responders, pretreatment, mean ± S.E.M.
# [10] = diabetic-treated responders, week 6, mean ± S.E.M.
smiles,measurement,setting,value
"Cc1occc(=O)c1[O-].Cc1occc(=O)c1[O-].[O]=[V+2] [BMOV, Bis(maltolato)oxovanadium(IV)]",log p,[1],0.12
same,animals that developed hypoglycemia,diabetic rats [2]; 15 mg/kg i.p.,Two animals
same,rats responding with a decrease in blood glucose,"diabetic rats [2]; 15 mg/kg i.p. (0.05 mmol/kg), suspension in 1% methyl cellulose",Nine out of the twelve
same,fluid intake,diabetic rats [3]; 0.46-0.92 mmol/kg,decreased to normal
same,blood glucose reduction,"diabetic rats [3]; 0.46-0.92 mmol/kg (150-300 mg/kg), four diabetic rats",reduced blood glucose in four diabetic rats into the normal range
same,rats responding with a decrease in blood glucose,diabetic rats [4],Six out of six
same,time of peak fall in blood glucose,diabetic rats [4],5 h
same,time for return of blood glucose to diabetic levels,diabetic rats [4]; usually,≤ 12 h
same,"weight, diabetic-treated groups vs all other groups","diabetic rats [5]; both diabetic-treated groups, by day 7",significant difference
same,"plasma triglyceride and cholesterol, in words",diabetic rats [5]; diabetic animals,restored to control values
same,fluid intake,diabetic rats [5]; diabetic treated (diabetic about 275 ml/rat),about 60 ml/rat
same,food intake,diabetic rats [5]; diabetic-treated (from greater than 50 grams per day),about 30 grams per day
same,"weight, non-responders vs other 4 groups","diabetic rats [5]; diabetic-treated non-responders, by day 28",significantly different from the other 4 groups
same,Cholesterol,diabetic rats [5]; [7],1.51 ± 0.07 mmol/L
same,Triglyceride,diabetic rats [5]; [7],1.85 ± 0.41 mmol/L
same,Cholesterol,diabetic rats [5]; [8],1.48 ± 0.09 mmol/L
same,Triglyceride,diabetic rats [5]; [8],2.31 ± 0.19 mmol/L
same,hypoglycemia,"diabetic rats [5]; diabetic-treated responders, before day 18, treatment withheld",developed in several animals
same,"blood glucose, in words","diabetic rats [5]; diabetic-treated responders, by day 14",euglycemic
same,"weight, responders vs diabetic group","diabetic rats [5]; diabetic-treated responders, by day 28",no longer a significant difference
same,Cholesterol,diabetic rats [5]; [9],1.67 ± 0.10 mmol/L
same,Triglyceride,diabetic rats [5]; [9],1.10 ± 0.09 mmol/L
same,Cholesterol,diabetic rats [5]; [10],1.58 ± 0.11 mmol/L
same,Triglyceride,diabetic rats [5]; [10],1.70 ± 0.18 mmol/L
same,weight gain,"diabetic rats [5]; diabetic-treated, 77 days, drinking water",140 g
same,"food consumption vs control, in words","diabetic rats [5]; diabetic-treated, at any time",no significant difference
same,Insulin values,"diabetic rats [5]; diabetic-treated, day 28 of BMOV study",22.0 ± 1.6 μU/ml
same,food intake,"diabetic rats [5]; diabetic-treated, day 77",28±1.6 grams per day
same,animals responding (blood glucose lowered),"diabetic rats [5]; diabetic-treated, drinking water",8 out of the 12 and eight of the twelve
same,"fluid consumption vs control, in words","diabetic rats [5]; diabetic-treated, throughout",no significant difference
same,blood glucose,"diabetic rats [5]; non-responders (four of the twelve rats), on any given day",6 to 30 mM
same,"blood glucose, in words","diabetic rats [5]; responders, by day 24",normal blood glucose
same,blood glucose,"diabetic rats [5]; responders, from day 7 onwards (from 20 mM)",less than 10 mM
same,cataracts,"diabetic rats [5]; treated animals not controlled by the drug, end of 77 days",One of the four
same,cataracts,"diabetic rats [5]; treated diabetic rats controlled by the drug, end of 77 days (untreated diabetic 5/11)",0/8
same,"development of high blood pressure, in words",SHR rats,prevent the development of high blood pressure
same,decrease in systolic blood pressure,SHR rats; tail cuff,25-30 mmHg
same,"systolic blood pressure, normotensive controls",WKY rats,without having any effect
same,blood glucose reducing effect vs compounds of Comparative Examples 15 and 16,diabetic rats [6],superior
same,plasma glucose level,"diabetic rats [6]; 0 h, individual rats (two per drug)",23.02 mM and 23.01 mM
same,plasma glucose level,"diabetic rats [6]; 2 h, individual rats",23.87 mM and 23.15 mM
same,plasma glucose level,"diabetic rats [6]; 4 h, individual rats",22.27 mM and 23.32 mM
same,plasma glucose level,"diabetic rats [6]; 6 h, individual rats",21.21 mM and 22.09 mM
same,plasma glucose level,"diabetic rats [6]; 8 h, individual rats",20.26 mM and 19.45 mM
same,plasma glucose level,"diabetic rats [6]; 12 h, individual rats",9.97 mM and 8.73 mM
same,plasma glucose level,"diabetic rats [6]; 24 h, individual rats",0.8 mM and 1.0 mM
same,"plasma glucose, difference BMOV vs ETHYLBMOV",STZ-diabetic rats,statistically insignificant
same,"plasma insulin, difference BMOV vs ETHYLBMOV",STZ-diabetic rats,statistically insignificant
same,plasma insulin levels,non diabetic rats,sufficient to lower plasma insulin levels
same,"water solubility, in words",Water solubility,quite water-soluble
same,water solubility,Water solubility; water,about 7 mM and ~2 mg/mL
